Patent publication US11078171B2, “Non-ATP/catalytic site p38 mitogen activated protein kinase inhibitors” (University of Maryland, Baltimore, priority 2018, dated 2021)
Read-outs that look alike come from different tables or passages of the source.

Columns and labels:
[1] = tested on: LPS-induced acute lung injury in mice; test: Mouse LPS acute lung injury model with UM101 analogues, total protein in lung lavage fluid (FIG. 9, FIG. 10); format: in vivo
Description: FIG. 9 illustrates that UM101 and analogues inhibit acute lung injury in a mouse model. Mice were pretreated i.p. with 1 mg of test compounds and then treated with […] LPS i.t. at 39° C. to induce inflammation. Lung injury was assessed by measuring total protein in the lung lavage fluid.
FIG. 10 illustrates that UM101 and analogues inhibit acute lung injury in a mouse model. All mice received 50 μg LPS i.t. and were kept 24 h at 39° C.; all treatments 1 mg in 0.5 ml DMSO given 6 h post-LPS; mean SM, n=5, *p=0.03 vs DMSO #1; †p=0.16 vs DMSO #2. Lung injury was assessed by measuring total protein in the lung lavage fluid.
First, the compounds can block thrombin-induced cell permeability in human vascular endothelial cells (FIG. 8). […] Mice were pretreated i.p. with 1 mg of test compounds and then treated with […] LPS i.t. at 39° C. to induce inflammation. Lung injury was assessed by measuring total protein in the lung lavage fluid. […] All mice received 50 μg LPS i.t. and were kept 24 h at 39° C.; all treatments 1 mg in 0.5 ml DMSO given 6 h post-LPS; mean±SM, n=5, *p=0.03 vs DMSO #1; †p=0.16 vs DMSO #2. Lung injury was assessed by measuring total protein in the lung lavage fluid.

[2] = patients with Crohn's disease; cited from earlier work
[3] = patients with hypercholesterolemia; cited from earlier work
[4] = rheumatoid arthritis, two trials; cited from earlier work
[5] = molecular target: T1, p38α mutant (R49K/HL107-8TF/K165R) (Homo sapiens, UniProt Q16539, H107T/K165R/L108F/R49K); test: DSF, binding to p38α mutant with 4 mutations in CADD-targeted pocket; conditions: four of ten target pocket amino acids substituted
T1 construct: made in house; host or cells: E. coli BL21
T1 sequence (Q16539 whole entry R49K/H107T/L108F/K165R): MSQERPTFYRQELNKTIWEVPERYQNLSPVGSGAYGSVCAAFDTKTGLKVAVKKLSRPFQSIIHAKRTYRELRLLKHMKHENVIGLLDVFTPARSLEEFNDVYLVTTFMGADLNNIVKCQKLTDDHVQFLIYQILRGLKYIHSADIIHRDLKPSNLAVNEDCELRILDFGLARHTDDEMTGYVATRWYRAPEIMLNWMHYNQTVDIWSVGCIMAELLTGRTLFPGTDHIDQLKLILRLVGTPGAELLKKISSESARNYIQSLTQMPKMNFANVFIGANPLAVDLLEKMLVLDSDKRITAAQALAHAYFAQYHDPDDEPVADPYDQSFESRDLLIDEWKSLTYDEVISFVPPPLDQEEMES

[6] = tested on: HMVECLs; test: LDH release cytotoxicity assay; format: cell-based, human; conditions: 100 μM for 48 h
Description: (§1) Cytotoxicity of HMVECL exposed to 10-100 μM of each compound is analyzed by MTS assay (Promega), LDH release (Promega), and immunoblotting for activated caspase-3 (Cell Signaling).

[7] = molecular target: T2, p38α (Homo sapiens, UniProt Q16539); test: STD-NMR with p38α; format: binding; set-up: made in house; host or cells: E. coli BL21; conditions: 200 μM UM101, 5 μM protein
T2 sequence (Q16539 whole entry): as the sequence (Q16539 whole entry R49K/H107T/L108F/K165R) above, with K49R, T107H, F108L, R165K counted along it
Description: (§2) Saturation Transfer Difference Nuclear Magnetic Resonance (STD-NMR): A 40 mM stock solution of UM101 was made in d6-DMSO. STD-NMR samples contained 150 mM NaCl, 50 mM phosphate, pH 7,200 μM UM101, and 5 μM p38 protein in D20. Spectra were recorded on an Agilent DD2 500-MHz spectrometer equipped with a 5-mm inverse HFCN probe head at 300 K. During each transient, the protein was saturated with a series of 58 […]-shaped pulses (50 ms, 1 ms delay between pulses) using the vendor-supplied STD-ES pulse sequence, for a total saturation time of 3 seconds. The on-resonance irradiation of protein was done at 0.5 ppm and off-resonance irradiation at 30 ppm. The vendor-supplied WATERGATE pulse sequence was used to suppress the water signal in the STD spectrum. The on-resonance and off-resonance pulse sequences were subtracted internally. A total of 16,384 transients were collected for each STD experiment with a 1 second delay between acquisitions, 6000 Hz spectral width, and 1.3 second acquisition time.
(§3) Selective binding of UM101 to the CADD-targeted pocket in p38α was confirmed using Saturation Transfer Difference (STD)-NMR. The peaks in the 1D spectrum are labeled according to tentative peak assignments of UM101 in aqueous form, based on assignments of UM101 in 2 mM d6-DMSO, which were obtained from the use of 1D proton and C13 and 2D-HMBC experiments. […]

[8] = molecular target: T3, p38β (Homo sapiens, UniProt Q15759); test: DSF, binding to p38β
T3 construct: HA (N); made in house; host or cells: E. coli BL21
T3 sequence (Q15759 whole entry): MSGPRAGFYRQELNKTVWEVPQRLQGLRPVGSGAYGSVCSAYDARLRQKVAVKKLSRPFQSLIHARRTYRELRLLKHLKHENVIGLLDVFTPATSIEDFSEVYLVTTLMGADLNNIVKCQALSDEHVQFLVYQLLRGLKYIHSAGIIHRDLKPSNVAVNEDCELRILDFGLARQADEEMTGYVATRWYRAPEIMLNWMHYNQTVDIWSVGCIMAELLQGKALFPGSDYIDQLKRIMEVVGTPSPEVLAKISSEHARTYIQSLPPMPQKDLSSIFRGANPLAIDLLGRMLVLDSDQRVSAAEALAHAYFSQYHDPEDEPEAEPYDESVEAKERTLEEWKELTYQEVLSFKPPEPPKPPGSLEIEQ

[9] = molecular target: ERK2 (Homo sapiens, UniProt P28482); test: DSF, binding to ERK2; conditions: 10-100 μM
ERK2, sequence (P28482 whole entry, species assumed): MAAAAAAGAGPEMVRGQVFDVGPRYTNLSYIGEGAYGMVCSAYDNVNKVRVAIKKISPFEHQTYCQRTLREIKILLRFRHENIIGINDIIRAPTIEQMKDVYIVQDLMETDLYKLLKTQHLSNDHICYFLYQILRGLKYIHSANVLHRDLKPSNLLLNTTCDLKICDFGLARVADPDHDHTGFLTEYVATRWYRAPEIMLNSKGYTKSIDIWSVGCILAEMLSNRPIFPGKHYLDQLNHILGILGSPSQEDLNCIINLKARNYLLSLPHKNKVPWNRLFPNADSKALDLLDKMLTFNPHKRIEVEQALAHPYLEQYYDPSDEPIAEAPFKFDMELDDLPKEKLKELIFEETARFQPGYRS
Description: Differential Scanning Fluorimetry (DSF): Binding of CADD selected compounds to p38α and […] was tested experimentally using DSF, which evaluates changes in the target protein melting temperature (ΔTm) due to interactions with test compound. SYPRO orange (Invitrogen; diluted 1:1000 in 10 mM HEPES, 150 mM NaCl, pH 7.5) and 1 μM unphosphorylated recombinant human p38α were added to 96-well PCR plates, then 50 nM to 200 μM test compound in 100% DMSO (2% final DMSO concentration) was added, the plates mixed, sealed, centrifuged at 1000 rpm for 1 min, and melting curve performed using an Applied Biosystems real time PCR instrument. The melting point was determined from the first derivative curve. In addition, […], or target-disrupted p38α mutant are used as well.
Test compounds at 10-100 μM were screened for binding to recombinant p38α and ERK2 using DSF (FIG. 1e, Table 1).

[10] = tested on: MK2 phosphorylation in anisomycin-stimulated HeLa cells; test: Inhibition of substrate phosphorylation, phospho-MK2 immunoblot; format: cell-based, human; conditions: 30 min pretreatment
Description: (§4) Inhibition of substrate phosphorylation: A functional analysis of UM101 to block p38-dependent phosphorylation of MK2 and Stat-1 was performed in HeLa cells. […] Cell extracts prepared in RIPA buffer containing protease and phosphatase inhibitors were resolved by SDS-PAGE, transferred to PVDF membrane, blocked with 5% nonfat dry milk, probed with primary antibodies against phosphorylated MK2 and Stat-1, and total p38α as a loading control. Bands were detected using secondary antibodies conjugated to infrared fluorophores and infrared fluorescence imaging (Odyssey; LICOR).

[11] = molecular target: T2, p38α; test: Differential scanning fluorimetry (DSF), binding to p38α; conditions: for stabilization of p38α (DSF): 10-100 μM; for ΔTm at 100 µM: read-out: increase of the melting temperature of p38α
[12] = tested on: HMVECL monolayers; test: Endothelial permeability assay (10 kDa dextran flux), TNFα/hyperthermia; format: cell-based, human
Description: Endothelial permeability assay: Permeability of HMVECL monolayers was assessed by measuring transendothelial flux of 10 kDa dextran conjugated to Cascade blue fluorescent dye for 30 min at 37° C. in Matrigel-coated 3 μm pore size Transwell plates.
The capacity of UM60 and UM101 to stabilize endothelial barriers to macromolecules and neutrophils in TNFα- and hyperthermia-stressed HMVECL monolayers was tested (FIG. 2).

[13] = tested on: LPS/hyperthermia-induced ALI in mice; conditions: for mice died within 24 h: 1000 μg i.p. 30 min prior to 50 μg LPS i.t./hyperthermia
[14] = tested on: Stat-1 phosphorylation in anisomycin-stimulated HeLa cells; test: Inhibition of substrate phosphorylation, phospho-Stat-1 immunoblot; format: cell-based, human; conditions: 30 min pretreatment
Description: as §4

[15] = molecular target: T4, mutated p38α (Homo sapiens, UniProt Q16539, H107T/K165R/L108F/R49K); test: STD-NMR with mutated p38α; format: binding; conditions: 200 μM UM101, 5 μM protein
T4 construct: made in house; host or cells: E. coli BL21
T4 sequence (Q16539 whole entry R49K/H107T/L108F/K165R): as the sequence (Q16539 whole entry R49K/H107T/L108F/K165R) above
Description: as §2, §3

[16] = tested on: HMVECLs; test: MTS cytotoxicity assay; format: cell-based, human; conditions: 100 μM for 48 h
Description: as §1
Cytotoxicity assay: Cytotoxicity was monitored in parallel HMVEC-L monolayers established in 96-well culture plates using a colorimetric assay that measured reduction of 3-(4,5-dimethylthiazol-2-yl)-5-(3-carboxymethoxyphenyl)-2-(4-sulfophenyl)-2H-tetrazolium (MTS) to a formazan dye (CellTiter 96™; Promega; Madison, Wis.) according to the manufacturer's protocol and quantifying product formation by measuring absorption at 490 nm.

[17] = tested on: HMVECLs; test: IL-8-directed neutrophil transendothelial migration (TEM) assay; format: cell-based, human
Description: Neutrophil transendothelial migration (TEM) assay: Neutrophils were isolated from heparinized venous blood that was collected from healthy volunteers using a protocol approved by the University of Maryland Institutional Review Board and TEM of calcein-labeled neutrophils through HMVECLs was measured.

[18] = molecular target: T3, p38β; test: STD-NMR with p38β; format: binding; conditions: 200 μM UM101, 5 μM protein
Description: as §2, §3

[19] = patients at-risk for ARDS; cited from earlier work
[20] = FIG. 10: 50 μg LPS i.t., 24 h at 39° C., 1 mg in 0.5 ml DMSO given 6 h post-LPS
[21] = FIG. 9: pretreated i.p. with 1 mg, then 100 mg LPS i.t. at 39° C.

CN(C)c1cccc2c(S(=O)(=O)Nc3ccc(CN4CCOCC4)cc3)cccc12 [SF-7-044]
protein leak into bronchoalveolar lavage fluid (total protein) [1, 20]: reduced protein leak

Cc1ccc(-n2nc(C(C)(C)C)cc2NC(=O)Nc2ccc(OCCN3CCOCC3)c3ccccc23)cc1 [BIRB 796, doramapimod]
clinical effect [2]: no clinical effect
serum CRP levels [2]: transiently reduced

Cc1c(F)cc(C(=O)NC2CC2)cc1-c1ccc(C(=O)NCC(C)(C)C)cn1 [losmapimod]
serum CRP [3]: reduced serum CRP
vascular relaxation [3]: improved vascular relaxation

NC(=O)c1ccc(N(C(N)=O)c2c(F)cccc2F)nc1-c1ccc(F)cc1F [VX-702]
ACR20 symptom score [4]: small increases in proportion of treated subjects with ACR20 symptom score vs. placebo

O=C(Nc1ccc(CN2CCOCC2)cc1)c1ccc(Cl)cc1 [SF-7-009]
protein leak into bronchoalveolar lavage fluid (total protein) [1, 21]: reduced protein leak
protein leak into bronchoalveolar lavage fluid (total protein) [1, 20]: reduced protein leak

O=C(Nc1ccc(CN2CCS(=O)(=O)CC2)cc1)c1ccc(Cl)cc1 [UM101, 4-chloro-N-{4-[(1,1-dioxo-1lambda˜6˜,4-thiazinan-4-yl)methyl]phenyl}benzamide]
binding to p38α mutant (DSF) [5]: no UM101-binding
toxicity in LDH release assay [6]: Neither compound was toxic
interaction with p38α (STD-NMR) [7]: protons in both aromatic rings of UM101 interact with p38α
stabilization of p38β (DSF) [8]: only stabilized p38α
stabilization of ERK2 (DSF) [9]: not ERK2
anisomycin-stimulated phosphorylation of MK2 ([10]; 50 μM): reduced
stabilization of p38α (DSF) [11]: only stabilized p38α
ΔTm at 100 µM [11]: ~0.7 °C
reduction of TNFα/hyperthermia-induced permeability increase ([12]; 10 μM): 74%
reduction of TNFα/hyperthermia-induced permeability increase ([12]; 25 μM): 89%
reduction of TNFα/hyperthermia-induced permeability increase ([12]; 100 μM): > 100%
reduction of lavage neutrophil content vs. DMSO-treated controls ([13]; 100 μg i.p.): 44.4%
reduction of lavage neutrophil content vs. DMSO-treated controls ([13]; 300 μg i.p.): 49.5%
reduction of lavage neutrophil content vs. DMSO-treated controls ([13]; 500 μg i.p.): 55.3%
reduction of lavage neutrophil content vs. DMSO-treated controls ([13]; 1000 μg i.p.): 54%
survival of pretreated mice ([13]; 100, 300, 500 or 1000 μg i.p., 24 h): All sixteen UM101-pretreated mice survived
anisomycin-stimulated phosphorylation of Stat-1 ([14]; 50 μM): reduced
interaction with mutated p38α (STD-NMR) [15]: much weaker
toxicity in MTS assay [16]: Neither compound was toxic
reduction of hyperthermia-augmented neutrophil TEM ([17]; 10 μM): 95%
reduction of hyperthermia-augmented neutrophil TEM ([17]; 25 μM): less than baseline levels
reduction of hyperthermia-augmented neutrophil TEM ([17]; 50 μM): less than baseline levels
protein leak into bronchoalveolar lavage fluid (total protein) [1, 21]: reduced protein leak
interaction with p38β (STD-NMR) [18]: much weaker

O=C1c2cc(S(=O)(=O)NCCO)ccc2-c2ccc(S(=O)(=O)NCCO)cc21 [UM60, N2,N7-di(2-hydroxyethyl)-9-oxo-9H-2,7-fluorenedisulfonamide]
toxicity in LDH release assay [6]: Neither compound was toxic
stabilization of ERK2 (DSF) [9]: not ERK2
stabilization of p38α (DSF) [11]: stabilized p38α
ΔTm at 100 µM [11]: ~0.7 °C
reduction of TNFα/hyperthermia-induced permeability increase ([12]; 10 μM): no effect
reduction of TNFα/hyperthermia-induced permeability increase ([12]; 25 μM): no effect
reduction of TNFα/hyperthermia-induced permeability increase ([12]; 100 μM): 71%
mice died within 24 h [13]: Four of six
toxicity in MTS assay [16]: Neither compound was toxic
reduction of hyperthermia-augmented neutrophil TEM ([17]; 10 μM): 18%
reduction of hyperthermia-augmented neutrophil TEM ([17]; 25 μM): 89%
reduction of hyperthermia-augmented neutrophil TEM ([17]; 50 μM): less than baseline levels

Cc1cc(F)ccc1-c1nc(NC(CO)CO)nc2c1ccc(=O)n2-c1c(F)cccc1F [dilmapimod]
safety [19]: safe at the doses administered
serum C-reactive protein (CRP) levels [19]: modestly reduced

C[S+]([O-])c1ccc(-c2nc(-c3ccncc3)c(-c3ccc(F)cc3)[nH]2)cc1 (centres unmarked) [SB203580, reference compound]
stabilization of p38β (DSF) [8]: stabilized both p38α and p380
anisomycin-stimulated phosphorylation of MK2 ([10]; 10 μM): reduced
reduction of TNFα/hyperthermia-induced permeability increase ([12]; 10 μM): 50%
reduction of lavage neutrophil content vs. DMSO-treated controls ([13]; 1000 μg i.p.): 46.8%
mice died within 24 h [13]: one of six
anisomycin-stimulated phosphorylation of Stat-1 ([14]; 10 μM): reduced
reduction of hyperthermia-augmented neutrophil TEM ([17]; 10 μM): 84%
